In patent publication US20240148723A1, “MYCOBACTERIUM TUBERCULOSIS COMPOSITIONS AND METHODS” (priority 2021, published 2024):
Converted amounts (≈) assume the structure as drawn.

System: M. tuberculosis
Type: cell-based, Mycobacterium tuberculosis
Settings: pH 6.8

| Compound | MIC in the media 7H9 | MIC in the media L-Ala | MIC in the media SBA | MIC in the media SLac |
| --- | --- | --- | --- | --- |
| C=C1C(=O)OC2CC1C(OC(C)=O)C/C(C)=C/CC/C(C)=C\CCC2(C)O (centres unmarked) [compound 46728] | ≥ 75.30 mg/L | 37.65 mg/L (≈ 100 µM) | 9.41 mg/L (≈ 25 µM) | 4.71 mg/L (≈ 12.5 µM) |
| O=C(CCc1ccc(O)cc1)c1c(O)cc(O)cc1O [compound 407292] | ≥ 109.72 mg/L | 1.71 mg/L (≈ 6.23 µM) | 3.43 mg/L (≈ 12.5 µM) | 1.71 mg/L (≈ 6.23 µM) |
| NC(=O)c1cnccn1 [compound 14911] | ≥ 800 mg/L | 200 mg/L (≈ 1620 µM) | 100 mg/L (≈ 812 µM) | 200 mg/L (≈ 1620 µM) |
| CCOc1ccc(Nc2c3ccccc3nc3ccccc23)cc1 [compound 30205] | ≥ 1.97 mg/L | 1.97 mg/L (≈ 6.27 µM) | 3.93 mg/L (≈ 12.5 µM) | 1.97 mg/L (≈ 6.27 µM) |
| O=[N+]([O-])c1cnc(Sc2ccncn2)s1 [compound 311727] | ≥ 24.03 mg/L | 0.77 mg/L (≈ 3.2 µM) | 0.77 mg/L (≈ 3.2 µM) | 0.77 mg/L (≈ 3.2 µM) |
| COC(=O)c1cc([N+](=O)[O-])cc([N+](=O)[O-])c1 [compound 7317] | ≥ 90.44 mg/L | 11.31 mg/L (≈ 50 µM) | 5.65 mg/L (≈ 25 µM) | 5.65 mg/L (≈ 25 µM) |
| CCCCOC(=O)c1ccc(N)cc1 [compound 128464] | ≥ 800 mg/L | 0.06 mg/L (≈ 0.31 µM) | 0.06 mg/L (≈ 0.31 µM) | 0.06 mg/L (≈ 0.31 µM) |
| CN1CCN(c2ccc(C(=O)Nc3n[nH]c4ccc(Cc5cc(F)cc(F)c5)cc34)c(NC3CCOCC3)c2)CC1 [compound 774769] | ≥ 28.03 mg/L | 7.01 mg/L (≈ 12.5 µM) | 3.50 mg/L (≈ 6.24 µM) | 3.50 mg/L (≈ 6.24 µM) |
| C=CCOc1c(CCC)cc(CCC)cc1C(N)=O [compound 37955] | ≥ 26.14 mg/L | 13.07 mg/L (≈ 50 µM) | 13.07 mg/L (≈ 50 µM) | 3.27 mg/L (≈ 12.5 µM) |
| O=[N+]([O-])c1ccc(Sc2cccc[n+]2[O-])c2nonc12 [compound 228155] | ≥ 0.93 mg/L | 0.93 mg/L (≈ 3.2 µM) | 0.93 mg/L (≈ 3.2 µM) | 0.93 mg/L (≈ 3.2 µM) |
| Cn1ccc(=Nc2ccc(NC(=O)c3ccc(N=c4ccn(C)c5ccc([N+](=O)[O-])cc45)cc3)cc2)cc1 [compound 260594] | ≥ 0.81 mg/L | 0.81 mg/L (≈ 1.61 µM) | 1.61 mg/L (≈ 3.19 µM) | 0.40 mg/L (≈ 0.793 µM) |
| NC(=O)c1ccccc1N [compound 38768] | ≥ 54.48 mg/L | 54.48 mg/L (≈ 400 µM) | 54.48 mg/L (≈ 400 µM) | 54.48 mg/L (≈ 400 µM) |
| CSc1ccc2c(c1)C(N1CCN(C)CC1)Cc1ccccc1S2.O=C(O)/C=C\C(=O)O (centres unmarked) [compound 281816] | ≥ 11.82 mg/L | 2.95 mg/L | 2.95 mg/L | 2.95 mg/L |
| COc1cc2c(cc1O)C[C@H]1c3c(cc4c(c3-2)OCO4)CCN1C [compound 785178] | ≥ 16.27 mg/L | 8.13 mg/L (≈ 25 µM) | 4.07 mg/L (≈ 12.5 µM) | 4.07 mg/L (≈ 12.5 µM) |
| COc1ccc(C2CC(=O)c3c(O)cc(O)cc3O2)cc1O (centres unmarked) [compound 57654] | ≥ 120.91 mg/L | 7.56 mg/L (≈ 25 µM) | 7.56 mg/L (≈ 25 µM) | 1.89 mg/L (≈ 6.25 µM) |
| Oc1c(N=Nc2nn[nH]n2)ccc2ccccc12 [compound 338106] | ≥ 3.00 mg/L | 1.50 mg/L (≈ 6.24 µM) | 1.50 mg/L (≈ 6.24 µM) | 0.77 mg/L (≈ 3.21 µM) |
| CN(C)c1ccc(N=Nc2ccccn2)cc1 [compound 9358] | ≥ 22.63 mg/L | 5.66 mg/L (≈ 25 µM) | 1.41 mg/L (≈ 6.23 µM) | 1.41 mg/L (≈ 6.23 µM) |
| COc1ccc(-c2coc3cc(O)cc(O)c3c2=O)cc1 [compound 123538] | ≥ 113.70 mg/L | 7.11 mg/L (≈ 25 µM) | 7.11 mg/L (≈ 25 µM) | 0.45 mg/L (≈ 1.58 µM) |
| O=C1C[C@@H](c2ccccc2)Oc2cc(O)cc(O)c21 [compound 43318] | ≥ 101.70 mg/L | 6.36 mg/L (≈ 24.8 µM) | 6.36 mg/L (≈ 24.8 µM) | 0.41 mg/L (≈ 1.6 µM) |
| CC1(C)CCSC(C=Cc2ccccc2)=N1 [compound 150954] | ≥ 11.57 mg/L | 5.78 mg/L (≈ 25 µM) | 2.89 mg/L (≈ 12.5 µM) | 2.89 mg/L (≈ 12.5 µM) |
